Source: patent US10323000B2, “Indole derivatives and their use in neurodegenerative diseases” (priority 2014, dated 2019)
Where two headings read alike, the source gives them in different places.

What was measured:
[1] = biological target: P2X7 (IL-1β release from THP-1 cells) (Homo sapiens (Human), UniProt Q99572); experiment: IL-1β release assay; assay type: cell-based
Procedure: IL-1β release assay: The activation of P2X7 by ATP leads to a fast transient activation of cells resulting in influx of Ca^2+ followed by conversion of pro-IL-1β to active IL-1β. The functional activity of P2X7 compounds was measured by the release of mature […] in the culture medium of THP-1 cells, detected by sandwich ELISA. […] THP-1 cells were harvested from the flask in 50 ml by centrifugation for 3 min at 100 g. The cells were resuspended to 2×10^5 cells/ml in medium supplemented with 0.5 μM PMA and incubated. The cells were washed and resuspended to 1.5×10^5 cells/ml in medium complemented with 10 ng/ml LPS, and the cells were primed for 4 h at 37° C., 5% CO2. After addition of 20 μL of prediluted test compounds, blank, standard and control reagents, cells were incubated for a further 20 min at 37° C. and stimulated with 0.8 mM BzATP for 30 minutes. The cells were centrifuged, supernatant was collected and the presence of mature IL-1β was detected using Dual human IL-1b kit following manufacturer's instruction. The tetrahydrobenzodiazepine analogs effectively modulated the activity of P2X7 in the cells as measured by the levels of pro-inflammatory cytokine IL-1β, which is released by the activation of P2X7 receptor.

human P2X7 receptor = human P2X7 receptor (Homo sapiens (Human), UniProt Q99572); experiment: Pore permeation assay (YO PRO dye uptake); assay type: cell-based
Procedure: Agonist-induced pore formation was determined by measuring cellular uptake of YO PRO fluorescence dye in HEK293 transfected with human P2X7 receptor. A HEK293 cell over expressing human P2X7 was harvested using HQTase reagent to detach the cells from T75 cm flask. The harvested cells are centrifuged @1200 rpm for 5 min at room temperature. The viability of cells was determined by Trypan blue dye and the cells are plated @10,000 cell/well in 50 ul volume in a 384W BD Poly lysine coated plate and incubated overnight at 37 C. […] The plate was centrifuged at 1000 rpm for 5 seconds and incubated at room temperature for 30 minutes. The uptake of YO PRO dye into the cells was measured using Envision Fluorescence plate reader instrument (Perkin Elmer).

[2] = THP-1 cells, LPS primed, 0.8 mM BzATP, mature IL-1β by sandwich ELISA, read-out: hTHP-1/IL-ib IC50
[3] = HEK293 transfected with human P2X7, BzATP 10 uM, YO PRO dye uptake, read-out: hP2X7 IC50

Chain of human P2X7 receptor (Q99572 whole entry): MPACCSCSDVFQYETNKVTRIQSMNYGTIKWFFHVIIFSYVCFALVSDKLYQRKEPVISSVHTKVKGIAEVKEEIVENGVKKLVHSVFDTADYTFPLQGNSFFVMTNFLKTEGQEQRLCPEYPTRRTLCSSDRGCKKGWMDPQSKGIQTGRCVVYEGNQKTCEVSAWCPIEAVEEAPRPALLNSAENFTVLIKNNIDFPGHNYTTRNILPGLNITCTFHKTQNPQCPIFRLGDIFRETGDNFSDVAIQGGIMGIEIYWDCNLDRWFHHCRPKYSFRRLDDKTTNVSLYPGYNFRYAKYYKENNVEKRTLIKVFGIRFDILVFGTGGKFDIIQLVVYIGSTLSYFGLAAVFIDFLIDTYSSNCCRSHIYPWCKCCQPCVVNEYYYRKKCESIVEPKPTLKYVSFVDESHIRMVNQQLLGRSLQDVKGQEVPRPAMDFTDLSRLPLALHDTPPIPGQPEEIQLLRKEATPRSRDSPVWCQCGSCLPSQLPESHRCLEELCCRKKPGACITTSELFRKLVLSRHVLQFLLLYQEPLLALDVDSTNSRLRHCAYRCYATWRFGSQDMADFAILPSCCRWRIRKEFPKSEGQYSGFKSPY
Chain of P2X7 (IL-1β release from THP-1 cells) (Q99572 whole entry): as above

SMILES | IC50 [1] [nM] | IC50 (human P2X7 receptor) [nM] | IC50 [1, 2] [nM] | IC50 (human P2X7 receptor; [3]) [nM]
CC1(C)CCCC(O)(CNC(=O)c2cn(C3COC3)c3cccc(Cl)c23)C1 (centres unmarked) [Compound 64, 4-Chloro-1-oxetan-3-yl-1H-indole-3-carboxylic acid (1-hydroxy-3,3-dimethyl-cyclohexylmethyl)-amide] | 10 to 100 | 10 to 100 |  | 
COCCn1cc(C(=O)NCC2(c3ccccc3)CCCCC2)c2c(Cl)cccc21 [Compound 39, 4-chloro-1-(2-methoxyethyl)-N-((1-phenylcyclohexyl)methyl)-1H-indole-3-carboxamide] | 101 to 500 | 10 to 100 |  | 
O=C(NCC1CCC(F)(F)CC1)c1cn(CCN2CCCC2=O)c2cccc(Cl)c12 [Compound 189, 4-chloro-N-((4,4-difluorocyclohexyl)methyl)-1-(2-(2-oxopyrrolidin-1-yl)ethyl)-1H-indole-3-carboxamide] | 101 to 500 | 10 to 100 |  | 
CCC1CCCC(O)(CNC(=O)c2cn(CCOC)c3cccc(Cl)c23)C1 (centres unmarked) [Compound 22, 4-chloro-N-((3-ethyl-1-hydroxycyclohexyl)methyl)-1-(2-methoxyethyl)-1H-indole-3-carboxamide] |  | 101 to 500 | > 1000 | 
CCC1CCCC(O)(CNC(=O)c2cn(CC3CCCO3)c3cccc(Cl)c23)C1 (centres unmarked) [Compound 137, 4-chloro-N-((3-ethyl-1-hydroxycyclohexyl)methyl)-1-((tetrahydrofuran-2-yl)methyl)-1H-indole-3-carboxamide] |  | 101 to 500 | > 1000 | 
O=C(NCC1(O)CCCC(F)(F)C1)c1cn(C[C@H]2CCCO2)c2cccc(Cl)c12 (stereo partly drawn) [Compound 133, 4-chloro-N-((3,3-difluoro-1-hydroxycyclohexyl)methyl)-1-(((R)-tetrahydrofuran-2-yl)methyl)-1H-indole-3-carboxamide] | 10 to 100 | 10 to 100 |  | 
O=C(NCC1CCC(F)(F)CC1)c1cn(CC2CCOC2)c2cccc(Cl)c12 (centres unmarked) [Compound 148, 4-chloro-N-((4,4-difluorocyclohexyl)methyl)-1-((tetrahydrofuran-3-yl)methyl)-1H-indole-3-carboxamide] | 10 to 100 | 10 to 100 |  | 
CC1(C)CCCC(O)(CNC(=O)c2cn(C3CCOC3)c3cccc(Cl)c23)C1 (centres unmarked) [Compound 107, 4-Chloro-1-(tetrahydro-furan-3-yl)-1H-indole-3-carboxylic acid (1-hydroxy-3,3-dimethyl-cyclohexylmethyl)-amide] | 101 to 500 | 10 to 100 |  | 
CC1CC(F)(F)CC(O)(CNC(=O)c2cn(CC(F)(F)F)c3cccc(Cl)c23)C1 (centres unmarked) [Compound 1, 4-chloro-N-((3,3-difluoro-1-hydroxy-5-methylcyclohexyl)methyl)-1-(2,2,2-trifluoroethyl)-1H-indole-3-carboxamide] |  |  | > 1000 | 101 to 500
COCCn1cc(C(=O)NCCc2ccc(Cl)cc2Cl)c2c(Cl)cccc21 [Compound 36] |  | 101 to 500 | > 1000 | 
O=C(NCC1CCC(F)(F)CC1)c1cn(CC2CCOCC2)c2cccc(Cl)c12 [Compound 168, 4-chloro-N-((4,4-difluorocyclohexyl)methyl)-1-((tetrahydro-2H-pyran-4-yl)methyl)-1H-indole-3-carboxamide] | 101 to 500 | 10 to 100 |  | 
O=C(NCC1CCC(F)(F)CC1)c1cn(CC2CCCNC2)c2cccc(Cl)c12 (centres unmarked) [Compound 174, 4-chloro-N-((4,4-difluorocyclohexyl)methyl)-1-(piperidin-3-ylmethyl)-1H-indole-3-carboxamide] | 10 to 100 | 10 to 100 |  | 
CC(C)N(C)C(=O)Cn1cc(C(=O)NCC2CCC(F)(F)CC2)c2c(Cl)cccc21 [Compound 203, 4-Chloro-1-[(isopropyl-methyl-carbamoyl)-methyl]-1H-indole-3-carboxylic acid (4,4-difluoro-cyclohexylmethyl)-amide] | 101 to 500 | 10 to 100 |  | 
C[C@@H](NC(=O)c1cn(C2CCOC2)c2cccc(Cl)c12)C1C[C@H]2CC[C@@H]1C2 (stereo partly drawn) [Compound 109, 4-Chloro-1-(tetrahydro-furan-3-yl)-1H-indole-3-carboxylic acid ((1R,4S)-1-bicyclo[2.2.1]hept-2-yl-ethyl)-amide] | 500 to 999 | 101 to 500 |  | 
O=C(NCC1CCC(F)(F)CC1)c1cn(C[C@@H]2CCCN2)c2cccc(Cl)c12 [Compound 153, (S)-4-chloro-N-((4,4-difluorocyclohexyl)methyl)-1-(pyrrolidin-2-ylmethyl)-1H-indole-3-carboxamide] | 10 to 100 |  |  | < 10
COCCn1cc(C(=O)NC(CO)c2cccc(C(F)(F)F)c2Cl)c2c(Cl)cccc21 (centres unmarked) [Compound 32, 4-chloro-N-(1-(2-chloro-3-(trifluoromethyl)phenyl)-2-hydroxyethyl)-1-(2-methoxyethyl)-1H-indole-3-carboxamide] |  |  | 500 to 999 | 101 to 500
CC(C)OCCn1cc(C(=O)NCC2CCC(F)(F)CC2)c2c(Cl)cccc21 [Compound 128] | 101 to 500 | 101 to 500 |  | 
O=C(NCC1(N2CCN(c3ccccc3)CC2)CCCCC1)c1cn(C2COC2)c2cccc(Cl)c12 [Compound 51, 4-chloro-1-(oxetan-3-yl)-N-((1-(4-phenylpiperazin-1-yl)cyclohexyl)methyl)-1H-indole-3-carboxamide] |  | 10 to 100 | < 10 | 
COCCn1cc(C(=O)NCCc2ccccc2Cl)c2c(Cl)cccc21 [Compound 35, 4-Chloro-1-(2-methoxy-ethyl)-1H-indole-3-carboxylic acid [2-(2-chloro-phenyl)-ethyl]-amide] | 101 to 500 | 101 to 500 |  | 
O=C(NCC1(O)CCCC(F)(F)C1)c1cn(CC2CCCN2)c2cccc(Cl)c12 (centres unmarked) [Compound 155, 4-chloro-N-((3,3-difluoro-1-hydroxycyclohexyl)methyl)-1-(pyrrolidin-2-ylmethyl)-1H-indole-3-carboxamide] |  | 10 to 100 | < 10 | 
O=C(NCC1(O)CCC(F)(F)CC1)c1cn(CC2CCO2)c2cccc(Cl)c12 (centres unmarked) [Compound 115, 4-chloro-N-((4,4-difluoro-1-hydroxycyclohexyl)methyl)-1-(oxetan-2-ylmethyl)-1H-indole-3-carboxamide] | 101 to 500 | 101 to 500 |  | 
O=C(NC[C@H]1CCCC(F)(F)C1)c1cn(C2COC2)c2cccc(Cl)c12 [Compound 67, 4-chloro-N—(((S)-3,3-difluorocyclohexyl)methyl)-1-(oxetan-3-yl)-1H-indole-3-carboxamide] | 10 to 100 | 10 to 100 |  | 
C[C@H]1CCC[C@@](O)(CNC(=O)c2cn(C3COC3)c3cccc(Cl)c23)C1 [Compound 90, 4-chloro-N-(((1S,3S)-1-hydroxy-3-methylcyclohexyl)methyl)-1-(oxetan-3-yl)-1H-indole-3-carboxamide] | 10 to 100 |  |  | < 10
O=C(NCC1C[C@@H]2CC[C@H]1C2)c1cn(C2COC2)c2cccc(Cl)c12 (stereo partly drawn) [Compound 59, 4-Chloro-1-oxetan-3-yl-1H-indole-3-carboxylic acid ((1S,4R)-1-bicyclo[2.2.1]hept-2-ylmethyl)-amide] | 10 to 100 | 10 to 100 |  | 
O=C(NCC1CCC(F)(F)CC1)c1cn(C[C@H]2CCCO2)c2cccc(Cl)c12 [Compound 135, (R)-4-chloro-N-((4,4-difluorocyclohexyl)methyl)-1-((tetrahydrofuran-2-yl)methyl)-1H-indole-3-carboxamide] | 10 to 100 | 10 to 100 |  | 
O=C(NC[C@]1(O)CCCC(F)(F)C1)c1cn(CCN2CCCC2)c2cccc(Cl)c12 [Compound 177, (S)-4-chloro-N-((3,3-difluoro-1-hydroxycyclohexyl)methyl)-1-(2-(pyrrolidin-1-yl)ethyl)-1H-indole-3-carboxamide] | 101 to 500 | 101 to 500 |  | 
O=C(NC[C@]1(O)CCCC(F)(F)C1)c1cn(C[C@@H]2CCCO2)c2cccc(Cl)c12 [Compound 130, 4-chloro-N—(((S)-3,3-difluoro-1-hydroxycyclohexyl)methyl)-1-(((S)-tetrahydrofuran-2-yl)methyl)-1H-indole-3-carboxamide] | 10 to 100 | 10 to 100 |  | 
CCOC(C)CNC(=O)c1cn(C2COC2)c2cccc(Cl)c12 (centres unmarked) [Compound 78, 4-Chloro-1-oxetan-3-yl-1H-indole-3-carboxylic acid (2-ethoxy-propyl)-amide] |  |  |  | > 1000
O=C(NCC1CCC(F)(F)CC1)c1cn(CCC(F)F)c2cccc(Cl)c12 [Compound 11, 4-Chloro-1-(3,3-difluoro-propyl)-1H-indole-3-carboxylic acid (4,4-di fluoro-cyclohexyl methyl)-amide] |  | 10 to 100 |  | 
